Assay results published in ChEMBL document CHEMBL1938328, “A review on coumarins as acetylcholinesterase inhibitors for Alzheimer's disease” (Bioorg Med Chem, 2012).
Where a name gives a salt, the structure may show the parent alone.

Columns and labels:
[1] = molecular target: Acetylcholinesterase (Homo sapiens, UniProt P22303); assay: Inhibition of AChE
[2] = Selectivity ratio of IC50 for AChE to IC50 for BChE
[3] = molecular target: T1, Acetylcholinesterase (Rattus norvegicus, UniProt P37136); assay: Inhibition of AChE in rat brain cortical homogenate; type: tissue-based
T1 sequence (P37136 whole entry): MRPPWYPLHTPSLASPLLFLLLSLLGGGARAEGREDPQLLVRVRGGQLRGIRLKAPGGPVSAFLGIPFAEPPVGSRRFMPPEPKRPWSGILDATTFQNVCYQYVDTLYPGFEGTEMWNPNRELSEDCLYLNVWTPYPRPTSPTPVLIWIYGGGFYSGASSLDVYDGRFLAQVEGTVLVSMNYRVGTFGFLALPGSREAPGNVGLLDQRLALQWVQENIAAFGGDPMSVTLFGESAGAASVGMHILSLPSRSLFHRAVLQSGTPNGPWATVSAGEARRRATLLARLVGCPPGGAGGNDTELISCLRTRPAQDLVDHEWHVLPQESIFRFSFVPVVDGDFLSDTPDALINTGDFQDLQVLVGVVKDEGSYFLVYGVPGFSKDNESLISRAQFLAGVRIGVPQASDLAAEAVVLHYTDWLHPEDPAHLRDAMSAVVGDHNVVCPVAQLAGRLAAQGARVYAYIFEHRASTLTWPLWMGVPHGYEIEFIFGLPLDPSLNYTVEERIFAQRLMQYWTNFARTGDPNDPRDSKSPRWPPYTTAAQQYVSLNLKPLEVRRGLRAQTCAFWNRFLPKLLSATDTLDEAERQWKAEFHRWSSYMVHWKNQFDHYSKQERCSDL

Chain of Acetylcholinesterase (Homo sapiens, UniProt P22303) (P22303 whole entry): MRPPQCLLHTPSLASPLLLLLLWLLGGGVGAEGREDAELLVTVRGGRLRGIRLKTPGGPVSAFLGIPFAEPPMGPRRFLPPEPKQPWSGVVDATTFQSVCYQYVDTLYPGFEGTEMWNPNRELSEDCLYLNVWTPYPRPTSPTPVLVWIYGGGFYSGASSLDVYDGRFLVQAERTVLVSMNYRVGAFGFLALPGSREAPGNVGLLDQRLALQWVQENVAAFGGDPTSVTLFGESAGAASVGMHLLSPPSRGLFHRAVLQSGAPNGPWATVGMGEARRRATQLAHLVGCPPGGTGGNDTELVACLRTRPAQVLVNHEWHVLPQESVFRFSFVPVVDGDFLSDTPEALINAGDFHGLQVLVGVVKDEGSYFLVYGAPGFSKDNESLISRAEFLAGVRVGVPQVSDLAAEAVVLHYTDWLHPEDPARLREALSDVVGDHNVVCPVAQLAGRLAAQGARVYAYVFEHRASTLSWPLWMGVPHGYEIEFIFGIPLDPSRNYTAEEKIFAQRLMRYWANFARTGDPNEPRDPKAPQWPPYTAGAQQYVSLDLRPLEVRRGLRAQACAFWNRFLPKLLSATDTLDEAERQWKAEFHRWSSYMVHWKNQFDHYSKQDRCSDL

With `COc1cc2c(C)c(OC)c(=O)oc2cc1OCCCCOc1cc(O)cc(N(C)C)c1` the IC50 [1] was 275 nM.

For `COc1cc2oc(=O)c(OCCCCOc3cc(O)cc(N(C)C)c3)c(C)c2cc1OC`, the IC50 [1] was 0.236 nM and the Ratio IC50 [2] was greater than 300000.

`COc1cc2oc(=O)c(C)c(C)c2cc1OCCCN1CCN(c2ccccc2OC)CC1` [ENSACULIN HYDROCHLORIDE] gave an IC50 [3] of 360 nM.

For `COc1ccccc1NCc1cc(=O)oc2cc3oc4ccccc4c3cc12`, the IC50 [1] was 190 nM.
